Reference: PubChem BioAssay (NCI)
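48-hour exposure; five concentrations; linearly interpolated endpoints. GI50 = concentration required for 50% inhibition of growth. At the TGI there is no net growth.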

Key:
Assay in all cases: NCI anticancer screen, dose series, 48 h
[1] = system: CCRF-CEM leukemia
[2] = system: HCT-15 colon
[3] = system: K-562 leukemia
[4] = system: NCI-H522 lung
[5] = system: OVCAR-8 ovarian
[6] = system: PC-3 prostate
[7] = system: RXF 393 renal
[8] = system: SF-539 CNS
[9] = system: SR leukemia
[10] = system: T-47D breast

For `O=C(c1cc(-c2cc3c(cc2C(=O)N2Cc4ccccc4C[C@H]2CN2CCOCC2)OCO3)n2c1CCCC2)N(c1ccccc1)c1ccc(O)cc1`, the GI50 [1] was 3.34 µM, the TGI [1] was over 100 µM and the GI50 [2] was 3.54 µM. It also gave a TGI [2] of over 100 µM, a GI50 [3] of 3.88 µM and a TGI [3] of over 100 µM. It also gave a GI50 [4] of 22.9 µM, a TGI [4] of over 100 µM and a GI50 [5] of 10.6 µM. It also gave a TGI [5] of over 100 µM, a GI50 [6] of 2.99 µM and a TGI [6] of over 100 µM. For the same molecule, the GI50 [7] was 2.77 µM, the TGI [7] was 17.5 µM and the GI50 [8] was 15.7 µM. The TGI [8] was over 100 µM, the GI50 [9] was 3.09 µM and the TGI [9] was over 100 µM. The GI50 [10] was 4.95 µM and the TGI [10] was over 100 µM.
With `COc1ccc(C(=O)c2cc(OC)c(OC)c(OC)c2)cc1O` the GI50 [1] was 0.0308 µM, the TGI [1] was over 100 µM and the GI50 [2] was under 0.01 µM. It also gave a TGI [2] of over 100 µM, a GI50 [3] of under 0.01 µM and a TGI [3] of over 100 µM. It also gave a GI50 [4] of under 0.0164 µM, a GI50 [5] of 0.0427 µM and a TGI [5] of over 100 µM. It also gave a GI50 [6] of 0.0285 µM, a TGI [6] of over 100 µM and a GI50 [7] of 0.0167 µM. The TGI [7] was over 100 µM, the GI50 [8] was 0.0112 µM and the TGI [8] was 0.0557 µM. The GI50 [9] was under 0.01 µM, the TGI [9] was over 100 µM and the GI50 [10] was 26 µM. The TGI [10] was over 100 µM.
With `COc1ccc(C2=C(c3cn(C)c4ccccc34)C(=O)NC2=O)cc1OC` the GI50 [1] was 6.38 µM, the TGI [1] was over 25 µM and the GI50 [2] was 6.4 µM. The TGI [2] was over 25 µM, the GI50 [3] was 4.92 µM and the TGI [3] was over 25 µM. It also gave a GI50 [4] of 7.65 µM, a TGI [4] of over 21.9 µM and a GI50 [5] of 15.6 µM. The TGI [5] was over 25 µM, the GI50 [6] was 7.29 µM and the TGI [6] was over 25 µM. The GI50 [7] was 6.44 µM, the TGI [7] was over 25 µM and the GI50 [8] was 5.51 µM. The TGI [8] was over 18.1 µM, the GI50 [9] was 2.48 µM and the TGI [9] was over 25 µM. It also gave a GI50 [10] of 7.21 µM and a TGI [10] of over 25 µM.
In the case of `Cc1ccc(C(=O)N/N=C/c2cccc(Oc3ccccc3)c2)cn1`, the GI50 [1] is reported as 4.25 µM, the TGI [1] is reported as over 100 µM and the GI50 [2] is reported as 3.89 µM. The TGI [2] was over 100 µM, the GI50 [3] was 1.81 µM and the TGI [3] was over 100 µM. For the same molecule, the GI50 [4] was 7.38 µM, the TGI [4] was over 69.8 µM and the GI50 [5] was 15.8 µM. The TGI [5] was over 100 µM, the GI50 [6] was 7.75 µM and the TGI [6] was over 100 µM. The GI50 [7] was 18.9 µM, the TGI [7] was over 100 µM and the GI50 [8] was 10.6 µM. The TGI [8] was over 59.1 µM, the GI50 [9] was 1.01 µM and the TGI [9] was 20.7 µM. For the same molecule, the GI50 [10] was 6.3 µM and the TGI [10] was over 74.3 µM.
`Cc1ccc(NS(=O)(=O)c2cc(C)ccc2C)cc1` showed a GI50 [1] of 6.19 µM, a TGI [1] of over 100 µM and a GI50 [2] of 2.46 µM. The TGI [2] was 33.9 µM, the GI50 [3] was 0.761 µM and the TGI [3] was 29.4 µM. It also gave a GI50 [4] of 2.02 µM, a TGI [4] of 7.61 µM and a GI50 [5] of 5.94 µM. It also gave a TGI [5] of 42.7 µM, a GI50 [6] of 11.4 µM and a TGI [6] of 66.5 µM. It also gave a GI50 [7] of 2.9 µM, a TGI [7] of 16.7 µM and a GI50 [8] of 4.21 µM. The TGI [8] was 15.1 µM, the GI50 [9] was 1.18 µM and the TGI [9] was 16.5 µM. It also gave a GI50 [10] of 6.09 µM and a TGI [10] of over 100 µM.
In the case of `O=C(Nc1cc(Cl)ccc1O)c1cccc(NC2=C(Cl)C(=O)N(Cc3ccccc3)C2=O)c1`, the GI50 [1] is reported as 2.14 µM, the TGI [1] is reported as 11.5 µM and the GI50 [2] is reported as 13.3 µM. The TGI [2] was 27.6 µM, the GI50 [3] was 15.2 µM and the TGI [3] was 38.5 µM. For the same molecule, the GI50 [4] was 11.2 µM, the TGI [4] was 26.3 µM and the GI50 [5] was 14.5 µM. It also gave a TGI [5] of 38.8 µM, a GI50 [6] of 19.2 µM and a TGI [6] of 46.1 µM. The GI50 [7] was 17.4 µM, the TGI [7] was 45.1 µM and the GI50 [8] was 27.2 µM. For the same molecule, the TGI [8] was 58.9 µM, the GI50 [9] was 4.8 µM and the TGI [9] was 22.8 µM. It also gave a GI50 [10] of 29 µM and a TGI [10] of over 100 µM.
Molecule `O=C(N/N=C/c1ccc(O)cc1O)c1ccc(Nc2ccnc(C(F)(F)F)c2)cc1` has a GI50 [1] of 0.0913 µM, a TGI [1] of over 100 µM and a GI50 [2] of over 100 µM. It also gave a TGI [2] of over 100 µM, a GI50 [3] of over 20.7 µM and a TGI [3] of over 100 µM. The GI50 [4] was 13.5 µM, the TGI [4] was over 70 µM and the GI50 [5] was 7.76 µM. For the same molecule, the TGI [5] was over 100 µM, the GI50 [6] was over 45.1 µM and the TGI [6] was over 100 µM. The GI50 [7] was 17.3 µM, the TGI [7] was 64.1 µM and the GI50 [8] was 6.32 µM. It also gave a TGI [8] of 24.5 µM, a GI50 [9] of over 100 µM and a TGI [9] of over 100 µM. The GI50 [10] was 1.29 µM and the TGI [10] was over 100 µM.
Work on `Cc1c(Cl)cccc1NC(=O)c1sc2nc3c(cc2c1N)CCCCCC3` yielded a GI50 [1] of 0.176 µM, a TGI [1] of over 50 µM and a GI50 [2] of 0.156 µM. It also gave a TGI [2] of over 50 µM, a GI50 [3] of 0.113 µM and a TGI [3] of over 50 µM. For the same molecule, the GI50 [4] was 0.116 µM, the TGI [4] was 1.07 µM and the GI50 [5] was 0.286 µM. For the same molecule, the TGI [5] was over 50 µM, the GI50 [6] was 0.174 µM and the TGI [6] was over 50 µM. For the same molecule, the GI50 [7] was 0.133 µM, the TGI [7] was 3.5 µM and the GI50 [8] was 0.168 µM. It also gave a TGI [8] of 7.93 µM, a GI50 [9] of 0.101 µM and a TGI [9] of over 50 µM. It also gave a GI50 [10] of 0.223 µM and a TGI [10] of over 50 µM.
`c1cncc(CNc2ccccc2-c2nnc(Nc3ccc4c(c3)OCCO4)o2)c1` gave a GI50 [1] of 0.126 µM, a TGI [1] of 51.4 µM and a GI50 [2] of 0.107 µM. It also gave a TGI [2] of over 100 µM, a GI50 [3] of 0.0432 µM and a TGI [3] of over 100 µM. It also gave a GI50 [4] of 0.0369 µM, a TGI [4] of 7.9 µM and a GI50 [5] of 0.435 µM. The TGI [5] was over 100 µM, the GI50 [6] was 0.128 µM and the TGI [6] was over 100 µM. The GI50 [7] was 0.0343 µM, the TGI [7] was 0.251 µM and the GI50 [8] was 0.115 µM. The TGI [8] was over 100 µM, the GI50 [9] was 0.0424 µM and the TGI [9] was over 36 µM. It also gave a GI50 [10] of 3.57 µM and a TGI [10] of 60.2 µM.
`COc1cc2c(OC)c(c1)CCCC1=CC(=O)C=C(CCC2)C1=O` showed a TGI [1] of 20.1 µM, a TGI [2] of 98.4 µM and a TGI [3] of 34.6 µM. For the same molecule, the TGI [4] was 46.2 µM, the TGI [5] was over 31.6 µM and the TGI [6] was over 100 µM. For the same molecule, the TGI [7] was 76.7 µM, the TGI [8] was over 69.4 µM and the TGI [9] was over 56.5 µM. The TGI [10] was 43.5 µM.
For `CC1(C)N=C(N)N=C(N)N1c1cccc(CCCCc2ccc(S(=O)(=O)F)cc2Cl)c1`, the GI50 [1] was 3.29 µM, the TGI [1] was 36.5 µM and the GI50 [2] was 4.61 µM. The TGI [2] was over 100 µM, the GI50 [3] was 3.42 µM and the TGI [3] was over 100 µM. For the same molecule, the GI50 [4] was 3.6 µM, the TGI [4] was 20 µM and the GI50 [5] was 6.17 µM. For the same molecule, the TGI [5] was over 61.4 µM, the GI50 [6] was 0.581 µM and the TGI [6] was over 100 µM. The GI50 [7] was 9.46 µM, the TGI [7] was over 87.3 µM and the GI50 [8] was 2.06 µM. For the same molecule, the TGI [8] was 20.1 µM, the GI50 [9] was 0.456 µM and the TGI [9] was over 49.5 µM. It also gave a GI50 [10] of 14 µM and a TGI [10] of 34.5 µM.
In the case of `COc1cccc(/C=C/C(=O)c2cc3c(N)c(C(=O)Nc4cccc(Cl)c4C)sc3nc2C)c1`, the GI50 [1] is reported as 0.234 µM, the TGI [1] is reported as over 50 µM and the GI50 [2] is reported as 0.51 µM. For the same molecule, the TGI [2] was 1.46 µM, the GI50 [3] was 0.241 µM and the TGI [3] was over 50 µM. The GI50 [4] was 0.424 µM, the TGI [4] was 2.86 µM and the GI50 [5] was 1.49 µM. It also gave a TGI [5] of over 50 µM, a GI50 [6] of 1.43 µM and a TGI [6] of 7.34 µM. The GI50 [7] was 0.573 µM, the TGI [7] was 1.29 µM and the GI50 [8] was 0.967 µM. For the same molecule, the TGI [8] was 2.01 µM, the GI50 [9] was 0.217 µM and the TGI [9] was over 12.3 µM. It also gave a GI50 [10] of 1.52 µM and a TGI [10] of 7.82 µM.
